Test results published in patent US20040209906A1, “Composition comprising ketanserin AND AN ALKANOYL L-CARNITINE FOR THE TREATMENT OF CRPS” (Sigma-Tau industrie Farmaceutiche Riunite S.p.A., priority 1998, published 2004).

How the values were obtained:
CRPS [1] = conditions: in vivo; cited from earlier work
CRPS patients = assay: intravenous ketanserin treatment of CRPS patients (bolus plus infusion); assay type: in vivo
Procedure: All i.v. treatments were performed after at least 15 minutes of acclimatisation at constant temperature (20-23° C.). The temperature of the affected limb was recorded with Hewlett Packard electro-skin probe between digit 4 and 5. In addition continues photoplethysmograpy of the affected hand (digit 2) or foot (digit 1), blood pressure and hearth rate were recorded. All patients received a bolus of 10 mg of ketanserin i.v. in a running saline infusion. Ketanserin administration was continued by rate of 4 mg per hour.

CRPS [2] = conditions: ketanserin alone; cited from earlier work
[3] = after the intravenous treatment with ketanserin

| Compound | efficacy of therapeutic treatment in CRPS (CRPS [1]) | therapeutic result for symptoms caused by hyperpathia and allodinia (CRPS [1]) | skin temperature (CRPS patients; [3]) | symptom of small vein (CRPS patients; [3]) | peripheral circulation of the affected limb (CRPS patients; all patients, after the intravenous treatment with ketanserin (10 mg bolus, then 4 mg per hour)) | treatment of CRPS symptoms (CRPS [2]) |
| --- | --- | --- | --- | --- | --- | --- |
| C[S+](C)[O-] [dimethyl sulfoxide] | efficacious only during acute CRPS | without any therapeutic result | – | – | – | – |
| O=C(c1ccc(F)cc1)C1CCN(CCn2c(=O)[nH]c3ccccc3c2=O)CC1 [ketanserin] | – | – | normalised | disappeared | normalised | possible to treat most of symptoms, but not those caused by hyperpathia and allodinia |
